The subject of assay [1] is C. elegans wild-type strain N2. Put plainly: Same C. elegans pumping assay format using wild-type strain N2. It counts as in vivo. To be noted: read-out: EC50 (μM) Wild type worm N2. From the text:
The screening of the compounds according to the present invention has been performed in the C. elegans based high-throughput screen for Kv4.3 modulators described above. The method for testing the activity on human Kv4.3 of the compounds according to the invention with C. elegans strains expressing human Kv4.3 for their activity is the same as the method described in WO 03/097682. The method for testing the compounds on wild-type C. elegans strains not expressing human Kv4.3 is the same as the method described in WO 00/63427. Briefly, UG1755 animals have been grown in large numbers and staged young adults (no or only few eggs inside the uterus) have been harvested on the day of screening. Approximately 125 animals in 80 μl buffer have been dispensed per well of a “U shaped 96-well compound plate The compound plate contained already compound material at a final concentration of 30 μM in 0.3% DMSO. After one hour incubation 10 μl of the fluorescent label Calcein AM (CAM) have been added to achieve a final concentration of 5 μM CAM and 0.8% DMSO. After another four hours of incubation at 20° C., the drinking of C. elegans animals (or the “reaction 8 measured by the uptake of CAM) has been stopped by adding 10 μl of a 60 μM ivermectin solution. The fluorescence intensity (counts per second) has been measured 40 minutes after adding ivermectin with the Wallac plate reader at a wavelength of 535 nm (after excitation at 485 nm).
These compounds have been also tested in the same assay format using a C. elegans wild-type strain N2 and the corresponding EC50 has been calculated. The ratio of the EC50s obtained for a compound on the two strains (transgenic expressing human Kv4.3 and wild-type) gives an indication on whether said compound is acting on human Kv4.3. […]

Assay [2] addresses T1, Kv1.5 potassium channel (Homo sapiens, UniProt P22460).
T1 construct: expressed in transfected cells
Kind of assay: Patch clamp, CHO cells stably expressing the Kv1.5 potassium channel. It counts as cell-based. To be noted: Kv1.5 mediated current. How it is done:
The cDNA coding for Kv1.5 (GenBank Acc. No. M55513) was cloned into the pcDNA6-vector (Invitrogen, Leek, Netherlands). A C-terminal epitope-tag was introduced via PCR. The plasmid was sequenced and subsequently introduced into cells. Clonal cell lines stably expressing the Kv1.5 channel were established. Expression of protein was analyzed by means of immunofluorescence using antibodies directed against the epitope-tag. The functional expression of the ion channels was validated electrophysiologically.
The experiments were performed using CHO cells stably expressing the Kv1.5 potassium channel.
From a HP of −60 mV cells were hyperpolarised for 100 ms to […], followed by a 500 ms depolarisation to +50 mV. The current amplitude at the end of the test pulse to +50 mV was used for the analysis. Pulse cycling rate was 10 s (0.1 Hz).
The application protocol of test compounds is depicted in FIG. 7. The first 14 stimuli were required to achieve steady state of the current amplitude. Unspecific current reduction was calculated and served for correcting procedures during data analysis. After the 14th stimulus the test compound application was started (indicated by an arrow) via teflon and silicone tubings and was assumed to reach the cell after 6 additional stimuli. The perfusion is adjusted by using a defined drop rate of 10 drops per 10-12 s. Up to three concentrations were applied successively to one cell followed by a wash period of 5 minutes. Total number of stimuli was 140. Effect of the test compound was analysed between stimulus nos. 21 and 50 (5 min., long dashed line) for the first concentration, between stimulus nos. 51 and 80 (5 min., short dashed line) for an additional 5 minutes. If the cell was still stable, a wash was added afterwards. Start of test compound application at the given concentration is indicated by arrows. Number of stimuli of each single episode are shown in the protocol of FIG. 7.
The effects of the compounds were investigated at one concentration (2 μM or 1 μM) on the Kv1.5-mediated potassium channel. For comparison, the vehicle control experiments on the Kv1.5 mediated potassium channel. Results are presented in 9Table 9
On the technique in general: Patch clamp records ionic current or voltage across a cell membrane.

Setting [3] is: 2 μM, fraction, cell also prints %.

Where two headings read alike, the source gives them in different places.

T1 sequence (P22460 whole entry): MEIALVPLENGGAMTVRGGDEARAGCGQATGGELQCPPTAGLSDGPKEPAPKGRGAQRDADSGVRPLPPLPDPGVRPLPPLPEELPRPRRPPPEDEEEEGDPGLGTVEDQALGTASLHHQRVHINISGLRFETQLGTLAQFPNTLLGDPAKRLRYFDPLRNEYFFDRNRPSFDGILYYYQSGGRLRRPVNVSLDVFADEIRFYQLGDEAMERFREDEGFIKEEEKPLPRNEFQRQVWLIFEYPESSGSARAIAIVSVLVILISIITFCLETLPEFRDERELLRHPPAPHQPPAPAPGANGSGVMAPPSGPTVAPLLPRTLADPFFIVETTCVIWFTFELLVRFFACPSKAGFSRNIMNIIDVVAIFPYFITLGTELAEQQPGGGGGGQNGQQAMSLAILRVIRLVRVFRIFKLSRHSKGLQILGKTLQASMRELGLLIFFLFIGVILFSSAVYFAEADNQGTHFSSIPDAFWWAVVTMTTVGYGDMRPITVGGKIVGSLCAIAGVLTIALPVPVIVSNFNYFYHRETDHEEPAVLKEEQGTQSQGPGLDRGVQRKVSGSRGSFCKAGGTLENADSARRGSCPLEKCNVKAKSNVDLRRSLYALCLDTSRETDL

In the case of `Cc1nc(Nc2ccc(F)cc2)sc1C(=O)N[C@H](C)c1ccc2ccccc2c1` [Compound 16, 2-(4-fluoro-phenylamino)-4-methyl-thiazole-5-carboxylic acid (R)-1-(naphthalen-2-yl)ethyl amide], in assay [1] (Caenorhabditis elegans), the EC50 is over 60 µM.

As for `Cc1nc(Nc2ccc(Br)cc2)sc1C(=O)N[C@@H](C)c1ccc2ccccc2c1` [Compound 18, 2-(4-bromo-phenylamino)-4-methyl-thiazole-5-carboxylic acid (S)-1-(naphthalen-2-yl)ethyl amide], the EC50 in assay [1] (Caenorhabditis elegans) is 33 µM.

As for `Cc1nc(Nc2ccc(Br)cc2)sc1C(=O)N[C@H](C)c1ccc2ccccc2c1` [Compound 19, 2-(4-bromo-phenylamino)-4-methyl-thiazole-5-carboxylic acid (R)-1-(naphthalen-2-yl)ethyl amide], the EC50 in assay [1] (Caenorhabditis elegans) is 33 µM.

Turning to `Cc1nc(Nc2ccc(Cl)cc2)sc1C(=O)N[C@@H]1CCC[C@H]1OCc1ccccc1` [Compound 30, 2-(4-chloro-phenylamino)-4-methyl-thiazole-5-carboxylic acid (1R,2R)-2-(benzyloxycyclopent-1-yl) amide], the EC50 in assay [1] was over 60 µM.

As to `COc1ccccc1Nc1nc(C)c(C(=O)N[C@H]2CCC[C@@H]2OCc2ccccc2)s1` [Compound 68, 2-(2-methoxy-phenylamino)-4-methyl-thiazole-5-carboxylic acid (1S,2S)-2-(benzyloxycyclopent-1-yl) amide], in assay [2] (setting [3]), the “Relative remaining current (mean after 8-10 min)” value is listed as 0.51 (51%) and the “Relative remaining current (mean after 5 min)” value is 0.66 (66%).

Take `COc1ccccc1Nc1ccc(C(=O)N[C@H]2CCC[C@@H]2OCc2ccccc2)s1` [Compound 75, 2-(2-methoxy-phenylamino)-thiophene-5-carboxylic acid ((1S,2S)-2-benzyloxycyclopent-1-yl) amide]: the “Relative remaining current (mean after 8-10 min)” value in assay [2] (1 μM) was 77%.

Take `Cc1nc(Sc2ccccc2)sc1C(=O)N[C@H]1CCC[C@@H]1OCc1ccccc1` [Compound 81, 4-methyl-2-phenylsulfanyl-thiazole-5-carboxylic acid ((1S,2S)-2-benzyloxycyclopent-1-yl) amide]: the “Relative remaining current (mean after 8-10 min)” value in assay [2] (1 μM) is given as 44%.

As for `Cc1nc(Nc2cccc3cccnc23)sc1C(=O)N[C@H]1CCC[C@@H]1OCc1ccccc1` [Compound 94, 4-methyl-2-(quinolin-8-ylamino)-thiazole-5-carboxylic acid ((1S,2S)-2-benzyloxycyclopent-1-yl) amide], the “Relative remaining current (mean after 8-10 min)” value in assay [2] (1 μM) was 79%.

Turning to `Cc1nc(Nc2ccc3occc3c2)sc1C(=O)N[C@H]1CCC[C@@H]1OCc1ccccc1` [Compound 126, 2-(benzofuran-5-ylamino)-4-methyl-thiazole-5-carboxylic acid ((1S,2S)-2-benzyloxycyclopent-1-yl) amide], the “Relative remaining current (mean after 8-10 min)” value in assay [2] (1 μM) turned out to be 86%.

In general, EC50 refers to the concentration giving half of the maximal effect.

The values are drawn from patent US20080125432A1 (Devgen NV, priority 2004, published 2008).
